According to patent US20110207807A1, “NEW USE FOR HOMOISOFLAVONE OR A SALT THEREOF” (Catholic University Industry Academy Cooperation Foundation, priority 2008, published 2011):

Columns and labels:
rat mast cells = experiment: Antigen (DNP-IgE/DNP-HSA)-induced degranulation of rat mast cells (hexosaminidase release); type: cell-based; conditions: at 2 μg/mL, DNP-IgE / 10 ng/mL DNP-HSA, concentration-dependent (FIG. 8c)
Procedure: Further, the effect of homoisoflavanone on degranulation of rat mast cells induced by antigen was investigated. 5×10^4 rat mast cells were inoculated on a 6-well plate and cultured in MEM containing 15% FBS for 24 hours. Then, after reacting with 1 μg/mL DNP-IgE for 16 hours and then removing DNP-IgE by washing with PBS, the cells were cultured in 15% MEM for 6 hours. After pretreating with homoisoflavanone in Tyrode's solution for 30 minutes, the cells were treated with 10 ng/mL DNP-human serum albumin (HSA) to induce degranulation by transmitting the signals induced by the antigen. 30 minutes later, the supernatant was collected and the pellets were lysed with 0.5% triton X-100 (500 μL). The supernatant and the lysed pellets (70 μL) were incubated at 37° C. for 90 minutes in 0.1 M sodium citrate solution (pH 4.5) containing 8 mM p-nitrophenyl-N-acetyl-β-d-glucosaminide (70 μL). Then, after adding 0.2 M glycine (pH 10.7, 70 μL) to stop the reaction, absorbance was measured at 405 nm. Total enzymatic activity was calculated by the following equation.
Release amount=(Absorbance of supernatant)÷(Absorbance of supernatant+Absorbance of pellets)×100%

[1] = system: intracellular reactive oxygen species (ROS); experiment: Intracellular ROS induced by UV radiation (DCFH-DA fluorescence microscopy); type: cell-based, human; conditions: HaCaT cells, 1 μg/mL, UV 100 J/m^2, compared to UV only (FIG. 1)
Procedure: Human keratinocyte cell line HaCaT cells (acquired from Professor N. Fusenig of the German Cancer Research Center) were inoculated on a 60-mm culture dish (5×10^5 cells; 1×10^6 cells for a 100-mm culture dish) and cultured for 24 hours in Dulbecco's modified Eagle's medium (DMEM) containing 10% fetal bovine serum (FBS).
Then, after treating with homoisoflavanone of Chemical Formula 1 (R=OCH3) at a concentration of 1 μg/mL for 1 hour, the cells were washed 3 times with phosphate buffered saline (PBS). In order to generate reactive oxygen species (ROS), the cells were irradiated with UV at 100 J/m^2 using a UV lamp (FSX 24 T12/UVB/HO, Pansol™, USA). Immediately after the UV radiation, the cells were washed again with PBS and further cultured for 4 hours in DMEM containing 1% FBS, while treating with homoisoflavanone at the same concentration. Then, after treating for 30 minutes in Hank's balanced salt solution (HBSS, BioWhittaker, Cambrex, USA) with 25 μM 2,7-dichlorofluorescein diacetate (DCFH-DA), the cells were washed 3 times with PBS.
Thereafter, the ROS induced by UV were measured using a fluorescence microscope (Carl Zeiss, USA). Test groups were subdivided as follows: non-treated group—treated with neither UV nor homoisoflavanone; test group A—treated with homoisoflavanone only; control group—treated with UV only; test group B—treated with UV and homoisoflavanone.

BALE/c mice = experiment: Ear edema induced by UV radiation in animal model; type: in vivo, mouse; conditions: UV 7.5 kJ/m^2, 72 hours after UV (FIG. 10a)
Procedure: BALE/c mice were subdivided into a non-treated group (treated with acetone only without UV radiation), a control group (irradiated with UV at 7.5 kJ/m^2) and a test group (treated with 0.6 or 1 μg/10 μL homoisoflavanone and irradiated with UV at 7.5 kJ/m^2). Then, the effect on ear edema induced by UV radiation was investigated.
One hour before irradiating UV at 7.5 kJ/m^2, 1 μg/10 μL homoisoflavanone was applied on the front and rear parts of the ear, 5 μL each. Then, 72 hours after UV radiation, ear thickness was measured.

Q: Which results are given for `COc1ccc(CC2COc3cc(O)cc(O)c3C2=O)cc1O` (stereo not shown) [homoisoflavanone]?
A: inhibition of antigen-induced degranulation (hexosaminidase release) (rat mast cells): 50%; generation of intracellular ROS induced by UV [1]: decreased significantly; decrease in ear thickness (BALE/c mice; 0.6 μg/ear topical): 44%; decrease in ear thickness (BALE/c mice; 1 μg/ear topical): 52%
